{"source": "paper PMC10756276", "about": "“Highly specific σ2R/TMEM97 ligand FEM-1689 alleviates neuropathic pain and inhibits the integrated stress response” (Proceedings of the National Academy of Sciences of the …, 2023)", "key": {"[1]": {"tested_on": "mechanical hypersensitivity", "design": "method as in PMID 30157134, PMID 32677089", "settings": "cited from earlier work"}, "[2]": {"tested_on": "p-ACC in mouse DRG neurons", "experiment": "p-ACC immunocytochemistry in cultured DRG neurons", "format": "cell-based", "settings": "16 h; FEM-1689 10, 100, 1,000 nM; A769662 100 µM; wild-type and TMEM97KO neurons", "procedure": "(§1) The ICC protocol was based on a previously published protocol ([76]). […] Cells were blocked with 10% normal goat serum (NGS) in PBS-triton X (0.1%). […] Antibodies were incubated at 4 °C overnight. […] It was washed with PBS twice. […] Images were analyzed using Olympus CellSens. […] Number of cells analyzed are detailed in SI Appendix, Tables S3 and S4. […]\n(§2) T his BSA gradient containing the cells was centrifuged at 900g for 5 min at room temperatur e.\n(§3) The pellet containing the cells was resuspended in Br ainPhys media (STEMCell #05790) containing 2% […]\n(§4) 1% Gluta Max (Gibco # 350 5 0061). Hu man DRG ne uron s were plated a nd grown o n glass coverslips coate d with po ly-D-lysine (Sigma #P7405). C ultured D RG neurons were plated for 24 hours before being treated.\n(§5) Methylglyoxal (Sigma- Aldrich #M0252) and F EM- 1689 were serially diluted in media.\n(§6) Mouse samples - DRG cultures […]\n(§7) anesthesia and decapitated. […]\n(§8) section above with minor differences.\n(§9) Mouse DRG neurons were grown in\n(§10) SAS-0132 and DKR-1677 were […]\n(§11) dissolved in 100% DMSO to a final concentr ation of 200mM and stored at - 20 °C. and DKR-1677 were serially diluted in media. Untreated media was completely replaced with media containing each compound. […]\n(§12) Slides were […]\nincubated with 1:2 diluted hydrogen peroxide in distilled water for 10 min at r oom temper ature and washed twice in distilled water. […]"}, "[3]": {"tested_on": "p-eIF2α in mouse DRG neurons", "experiment": "p-eIF2α immunocytochemistry in cultured DRG neurons", "format": "cell-based", "settings": "16 h; for phosphorylation of eIF2α: wild-type mouse DRG neurons, 10, 30, 100, 300 nM; for p-eIF2α levels: ISRIB 200 nM", "procedure": "as §1, §2, §3, §4, §5, §6, §7, §8, §9, §10, §11, §12\n(§13) incubated with 1:2 diluted hydrogen peroxide in distilled water for 10 min at r oom temper ature and washed twice in distilled water. The protease IV was applied to each section and incubated for 5 min at room temperature. Slides were w ashed twice in 1X PBS and RNA scope was performed immediately. A mixture of probes - Tmem97, Scn10a, and Fabp7 – was hybridized for 2 hours at 40 °C in a humidity control tray"}, "[4]": {"tested_on": "models of traumatic brain injury (TBI)", "settings": "blast injury and controlled cortical impact models; cited from earlier work"}, "retinal ganglion cells": {"tested_on": "retinal ganglion cells", "design": "method as in PMID 36456686", "settings": "ischemia/reperfusion injury; cited from earlier work"}, "BiP in mouse DRG neurons": {"tested_on": "BiP in mouse DRG neurons", "experiment": "BiP immunocytochemistry in cultured DRG neurons", "format": "cell-based", "settings": "ISRIB 200 nM", "procedure": "as §1, §2, §3, §4, §5, §6, §7, §8, §9, §10, §11, §12, §13"}, "[5]": {"tested_on": "MGO-induced mechanical hypersensitivity, wild-type mice", "experiment": "Methylglyoxal-induced mechanical hypersensitivity", "format": "in vivo, mouse"}, "neurite outgrowth": {"tested_on": "neurite outgrowth", "design": "method as in PMID 31836389", "settings": "cited from earlier work"}, "[6]": {"tested_on": "p-eIF2α in human DRG neurons", "experiment": "p-eIF2α immunocytochemistry in cultured human DRG neurons", "format": "cell-based", "settings": "MGO 1 µM"}, "[7]": {"tested_on": "mouse model of neuropathic pain", "design": "method as in PMID 28644012, PMID 27926996", "settings": "cited from earlier work; for mechanical hypersensitivity / antinociceptive effect: mouse neuropathic pain model"}, "[8]": {"tested_on": "animal models of age-related neurodegeneration", "design": "method as in PMID 27926996, PMID 29426225", "settings": "cited from earlier work"}, "[9]": {"tested_on": "neuronal toxicity induced by mutant huntingtin protein", "design": "method as in PMID 36108101", "settings": "model of Huntington's disease; cited from earlier work"}, "BZP Rat Brain": {"target": "BZP Rat Brain", "experiment": "PDSP competitive binding assay", "settings": "dose response curve"}}, "note": "“Also recorded” adds a separate entry of the source."}
{"compound": "O=C(O)CCCc1ccccc1", "note": "[4-PBA]", "values": [{"measurement": "duration of efficacy on mechanical hypersensitivity in vivo", "setting": "[1]", "result": "hours"}]}
{"compound": "N#Cc1c(O)c2c(-c3ccc(-c4ccccc4O)cc3)csc2[nH]c1=O", "note": "[A769662, reference compound]", "values": [{"measurement": "p-ACC levels", "setting": "[2]", "result": "elevate; also recorded: increased p-ACC levels in both wild-type and TMEM97KO neurons"}]}
{"compound": "CCCN1CCN(c2ccc3c(c2)C2CC3CCN2C(=O)OCc2ccccc2)CC1", "note": "(stereo not shown) [DKR-1677, reference compound]", "values": [{"measurement": "phosphorylation of eIF2α", "setting": "[3]", "result": "promote the phosphorylation of eIF2α; also recorded: stimulate the ISR by promoting the phosphorylation of eIF2α"}, {"measurement": "protection in traumatic brain injury", "setting": "[4]", "result": "protective in two different models of traumatic brain injury"}, {"measurement": "protection of retinal ganglion cells", "setting": "retinal ganglion cells", "result": "protects retinal ganglion cells from ischemia/reperfusion injury"}]}
{"compound": "O=C(COc1ccc(Cl)cc1)NC1CCC(NC(=O)COc2ccc(Cl)cc2)CC1", "note": "(stereo not shown) [ISRIB, reference compound]", "values": [{"measurement": "p-eIF2α levels", "setting": "[3]; TMEM97KO mouse DRG neurons", "result": "failed to change p-eIF2α immunoreactivity"}, {"measurement": "p-eIF2α levels", "setting": "[3]; wild-type mouse DRG neurons", "result": "reduced p-eIF2α levels in wild-type neurons"}, {"measurement": "BiP levels", "setting": "BiP in mouse DRG neurons; TMEM97KO mouse DRG neurons", "result": "reduce BiP levels"}, {"measurement": "BiP levels", "setting": "BiP in mouse DRG neurons; wild-type mouse DRG neurons", "result": "reduce BiP levels"}, {"measurement": "time after drug administration at which antiallodynic effects were observed", "setting": "[5]; ISRIB 2.5 mg/kg IP", "result": 3, "unit": "h"}, {"measurement": "MGO-induced mechanical hypersensitivity", "setting": "[5]; MGO 20 ng intraplantar, FEM-1689 20 mg/kg IV or ISRIB 2.5 mg/kg IP 24 h after MGO", "result": "transient; also recorded: reverted to a hypersensitive state 24 h after injection"}, {"measurement": "neurite outgrowth", "setting": "neurite outgrowth", "result": "enhances neurite outgrowth"}, {"measurement": "duration of efficacy on mechanical hypersensitivity in vivo", "setting": "[1]", "result": "hours"}]}
{"compound": "CC(=O)C=O", "note": "[MGO, Methylglyoxal, reference compound]", "values": [{"measurement": "p-eIF2α levels", "setting": "[6]", "result": "increased p-eIF2α levels"}]}
{"compound": "CN1CCN(c2ccc3c(c2)C2CC3CCN2C(=O)OCc2ccccc2)CC1", "note": "(stereo not shown) [SAS-0132]", "values": [{"measurement": "phosphorylation of eIF2α", "setting": "[3]", "result": "promote the phosphorylation of eIF2α; also recorded: stimulate the ISR by promoting the phosphorylation of eIF2α"}, {"measurement": "effect on the antinociceptive effects of UKH-1114", "setting": "[7]", "result": "inhibit the antinociceptive effects of UKH-1114; also recorded: blocks the antinociceptive activity of UKH-1114"}, {"measurement": "mechanical hypersensitivity / antinociceptive effect", "setting": "[7]", "result": "has no antinociceptive effect on its own"}, {"measurement": "neuroprotection and cognitive performance", "setting": "[8]", "result": "neuroprotective and improves cognitive performance"}]}
{"compound": "OCCCN1CCCC2CC1c1cc(-c3ccc(C(F)(F)F)cc3)ccc12", "note": "(stereo not shown) [UKH-1114]", "values": [{"measurement": "mechanical hypersensitivity / antinociceptive effect", "setting": "[7]", "result": "alleviates mechanical hypersensitivity following nerve injury"}, {"measurement": "neuronal toxicity", "setting": "[9]", "result": "reduces neuronal toxicity"}]}
{"compound": "O=C1CN=C(c2ccccc2Cl)c2cc([N+](=O)[O-])ccc2N1", "note": "[clonazepam, reference compound]", "values": [{"measurement": "LogKi, BZP Rat Brain", "setting": "BZP Rat Brain; given as LogKi with negative sign", "result": -8.89}, {"measurement": "Ki", "setting": "BZP Rat Brain; read-out: Ki, BZP Rat Brain", "result": 1.29, "unit": "nM"}]}
